Results as given in patent US10513500B2, “Crystalline forms of Lesinurad” (Apotex Inc., priority 2016, dated 2019).
“Also recorded” adds a separate entry of the source. One block for each molecule: values may come before it.

What was measured:
[1] = certain aqueous conditions, compared with Form 1; cited from earlier work
[2] = PXRD study of crystal form stability on storage; format: physicochemical
Protocol: Lesinurad Form APO-I can be characterized by a PXRD diffractogram comprising, among other peaks, characteristic peaks, expressed in degrees 2θ (±0.2°), at 7.8°, 15.1° and 27.0°. Preferably, the PXRD diffractogram further comprises at least three peaks, expressed in degrees 2θ (±0.2°), selected from the group consisting of: 14.5°, 15.6°, 16.4°, 17.6°, 18.5°, 19.9°, 22.1°, 23.5°, 25.9° and 29.3°. More preferably, the PXRD diffractogram further comprises peaks, expressed in degrees 2θ (±0.2°), at 14.5°, 15.6°, 16.4°, 17.6°, 18.5°, 19.9°, 22.1°, 23.5°, 25.9° and 29.3°. PXRD studies of a capped sample of Lesinurad Form APO-I have shown that this crystal form is stable following storage in a stability chamber maintained at 27° C./60% RH for 17 days.
Lesinurad Form APO-II can be characterized by a PXRD diffractogram comprising, among other peaks, characteristic peaks, expressed in degrees 2θ (±0.2°), at 7.9°, 15.2°, 16.5° and 25.4°. Preferably, the PXRD diffractogram further comprises at least two peaks, expressed in degrees 2θ (±0.2°), selected from the group consisting of: 14.4°, 15.7°, 17.7°, 18.4°, 22.1°, 22.8°, 23.5°, 26.5°, 28.8° and 29.3°. More preferably, the PXRD diffractogram further comprises peaks, expressed in degrees 2θ (±0.2°), at 14.4°, 15.7°, 17.7°, 18.4°, 22.1°, 22.8°, 23.5°, 26.5°, 28.8° and 29.3°. PXRD studies of a capped sample of Lesinurad Form APO-II have shown that this crystal form is stable following storage at room temperature and ambient humidity for 28 days.
Lesinurad Form APO-III can be characterized by a PXRD diffractogram comprising, among other peaks, characteristic peaks, expressed in degrees 2θ (±0.2°), at 6.2° and 19.9°. Preferably, the PXRD diffractogram further comprises at least four peaks, expressed in degrees 2θ (±0.2°), selected from the group consisting of: 7.6, 10.3°, 14.1°, 15.3°, 17.8°, 21.1°, 23.4°, 25.7° and 27.2°. More preferably, the PXRD diffractogram further comprises peaks, expressed in degrees 2θ (±0.2°), at 7.6°, 10.3°, 14.1°, 15.3°, 17.8°, 21.1°, 23.4°, 25.7° and 27.2°. PXRD studies of capped and uncapped samples of Lesinurad Form APO-III have shown that this crystal form is stable following storage in stability chambers maintained at 27° C./60% RH and 40° C./75% RH for 18 days.
Data were acquired on a PANanalytical X-Pert Pro MPD diffractometer with fixed divergence slits and an X'Celerator RTMS detector. The diffractometer was configured in Bragg-Brentano geometry; data was collected over a 2-theta range of 3° to 40° using CuKα radiation at a power of 40 mA and 45 kV. […] was removed using a divergent beam nickel filter. A step size of 0.017° was used. Samples were rotated to reduce preferred orientation effects. Samples were lightly ground prior to analysis. […]

[3] = Stability study under stress conditions (impurities, area %); format: physicochemical; details: for Major Unidentified Impurity: RRT in brackets
Protocol: (§1) The stability of Lesinurad Form APO-III was assessed under various stress conditions as outlined in Table 5.

[4] = Hygroscopicity on storage in humid, high temperature environment; format: physicochemical; details: stress conditions of Table 5 (open sample, 40° C./75% RH, 21 days)
Protocol: as §1
The title solid form of Lesinurad was prepared according to the procedure in Example 14 of WO 2015/095703 A1. A suspension of Lesinurad (1 g) in ethyl acetate (63 mL) was sonicated at room temperature for 30 minutes in order to achieve dissolution. Proline (570 mg) was added to the solution, and the resulting suspension was stirred at room temperature for 26 hours, at which time the suspension was isolated by filtration to afford a solid (872.9 mg, 68% yield) having a PXRD diffractogram consistent with FIG. 22 in WO 2015/095703 A1. […]

[5] = primary amine group; cited from earlier work
[6] = dry heat, heat/humidity and light exposure
[7] = light exposure 200 W·hr/m^2 UV + 1.2M LUX hr fluorescent
[8] = open sample, dry heat, solid state, 60° C./ambient RH, 21 days
[9] = open sample, heat/humidity, solid state, 40° C./75% RH, 21 days
[10] = sample wrapped in foil (control), light exposure 200 W·hr/m^2 UV + 1.2M LUX hr fluorescent

SMILES: O=C(O)CSc1nnc(Br)n1-c1ccc(C2CC2)c2ccccc12 [Form 2, Lesinurad]
solubility [1]: lower solubility than Form 1

SMILES: O=C(O)CSc1nnc(Br)n1-c1ccc(C2CC2)c2ccccc12 [Lesinurad Form APO-I, Lesinurad]
crystal form stability by PXRD ([2]; capped sample, stability chamber 27° C./60% RH, 17 days): stable; also recorded: no change

SMILES: O=C(O)[C@@H]1CCCN1 [Proline]
pKa [5]: approximately 10.6

Second part, the molecule after the results:

crystal form stability by PXRD ([2]; capped sample, room temperature and ambient humidity, 28 days): no change; also recorded: stable
SMILES: O=C(O)CSc1nnc(Br)n1-c1ccc(C2CC2)c2ccccc12 [Lesinurad Form APO-II, Lesinurad]

crystal form stability by PXRD ([2]; capped and uncapped samples, 27° C./60% RH, 18 days): no change; also recorded: stable | crystal form stability by PXRD ([2]; capped and uncapped samples, 40° C./75% RH, 18 days): no change; also recorded: stable | Total Identified Impurity ([3]; Non-stressed sample): 0.09 area % | Total Impurities ([3]; Non-stressed sample): 0.33 area % | Total Unidentified Impurity ([3]; Non-stressed sample): 0.24 area % | Major Unidentified Impurity ([3]; Non-stressed sample): 0.08 (0.91) area % | loss of Lesinurad [3, 6]: no significant loss | stability to stress conditions [3, 6]: good stability | total degradation ([3]; dry heat, heat/humidity and light exposure (Table 5)): less than 0.10% | chemical and physical stability ([3]; humid and high temperature environment): chemically and physically stable | Total Identified Impurity [3, 7]: 0.10 area % | Total Impurities [3, 7]: 0.46 area % | Total Unidentified Impurity [3, 7]: 0.35 area % | Major Unidentified Impurity [3, 7]: 0.09 (0.92) area % | Total Identified Impurity [3, 8]: 0.10 area % | Total Impurities [3, 8]: 0.40 area % | Total Unidentified Impurity [3, 8]: 0.30 area % | Major Unidentified Impurity [3, 8]: 0.09 (0.91) area % | Total Identified Impurity [3, 9]: 0.09 area % | Total Impurities [3, 9]: 0.38 area % | Total Unidentified Impurity [3, 9]: 0.29 area % | Major Unidentified Impurity [3, 9]: 0.09 (0.91) area % | Total Identified Impurity [3, 10]: 0.10 area % | Total Impurities [3, 10]: 0.42 area % | Total Unidentified Impurity [3, 10]: 0.32 area % | Major Unidentified Impurity [3, 10]: 0.09 (0.92) area % | hygroscopicity [4]: did not exhibit signs of hygroscopicity
SMILES: O=C(O)CSc1nnc(Br)n1-c1ccc(C2CC2)c2ccccc12 [Lesinurad Form APO-III, Lesinurad]
